Reference: US12385061B2, “Compositions and methods for chimeric ligand receptor (CLR)-mediated conditional gene expression” (Poseida Therapeutics, Inc., priority 2017, dated 2025)
Read-outs that look alike come from different tables or passages of the source.

Columns and labels:
cells [1] = assay: Amount of AP1903 needed in vitro for effective signaling of cells; type: cell-based; conditions: converted with 1600 Da MW
Description: The fixed dose of AP1903 for injection used, for example, may be 0.4 mg/kg intravenously infused over 2 hours. The amount of AP1903 needed in vitro for effective signaling of cells is 10-100 nM (1600 Da MW). This equates to 16-160 μg/L or {tilde over ( )}0.016-1.6 μg/kg (1.6-160 μg/kg). Doses up to 1 mg/kg were well-tolerated in the Phase I study of AP1903 described above. Therefore, 0.4 mg/kg may be a safe and effective dose of AP1903 for this Phase I study in combination with the therapeutic cells.

cells [2] = conditions: cited from earlier work
[3] = cited from earlier work

Compound: CC[C@H](C(=O)N1CCCC[C@H]1C(=O)O[C@H](CCc1ccc(OC)c(OC)c1)c1cccc(OCC(=O)NCCNC(=O)COc2cccc([C@@H](CCc3ccc(OC)c(OC)c3)OC(=O)[C@@H]3CCCCN3C(=O)[C@@H](CC)c3cc(OC)c(OC)c(OC)c3)c2)c1)c1cc(OC)c(OC)c(OC)c1 (relative stereo) [AP1903, 2-Piperidinecarboxylic acid, 1-[(2S)-1-oxo-2-(3,4,5-trimethoxyphenyl)butyl]-, 1,2-ethanediylbis[imino(2-oxo-2,1-ethanediyl)oxy-3,1-phenylene[(l R)-3-(3,4-dimethoxyphenyl)propylidene]]ester, [2S-[1(R*),2R*[S*[S*[1(R*),2R*]]]]]-(9Cl)]
- amount needed in vitro for effective signaling of cells, converted (cells [1]): 16 to 160 µg/L
- amount needed in vitro for effective signaling of cells (cells [2]): 10 to 100 nM
- pharmacokinetic profile ([3]; 0.01-1.0 mg/kg IV over 2 hours): favorable pharmacokinetic profile
- plasma levels in relation to dose ([3]; 0.01-1.0 mg/kg IV over 2 hours): directly proportional to dose
- plasma level as % of maximal concentration ([3]; 0.5 hours post-dose): approximately 18%
- plasma level as % of maximal concentration ([3]; 2 hours post-dose): ~7%
- plasma level as % of maximal concentration ([3]; 10 hours post-dose): ~1%
- doses well-tolerated ([3]; Phase I study): up to 1 mg/kg
- safety and tolerability ([3]; at all dose levels (0.01-1.0 mg/kg)): safe and well tolerated
- mean Cmax ([3]; over the 0.01-1.0 mg/kg dose range, single doses infused IV over 2 hours, 24 healthy volunteers): 10 to 1275 ng/mL
